Experimental data: ChEMBL document CHEMBL1140394, “Inhibition of Src kinase activity by 7-[(2,4-dichloro-5-methoxyphenyl)amino]-2-heteroaryl-thieno[3,2-b]pyridine-6-carbonitriles” (Bioorg Med Chem Lett, 2005)

How the values were obtained:
[1] = molecular target: T1, 3-phosphoinositide-dependent protein kinase 1 (Homo sapiens, UniProt O15530); experiment: Inhibitory activity against PDK1; type: functional
T1 sequence (O15530 whole entry): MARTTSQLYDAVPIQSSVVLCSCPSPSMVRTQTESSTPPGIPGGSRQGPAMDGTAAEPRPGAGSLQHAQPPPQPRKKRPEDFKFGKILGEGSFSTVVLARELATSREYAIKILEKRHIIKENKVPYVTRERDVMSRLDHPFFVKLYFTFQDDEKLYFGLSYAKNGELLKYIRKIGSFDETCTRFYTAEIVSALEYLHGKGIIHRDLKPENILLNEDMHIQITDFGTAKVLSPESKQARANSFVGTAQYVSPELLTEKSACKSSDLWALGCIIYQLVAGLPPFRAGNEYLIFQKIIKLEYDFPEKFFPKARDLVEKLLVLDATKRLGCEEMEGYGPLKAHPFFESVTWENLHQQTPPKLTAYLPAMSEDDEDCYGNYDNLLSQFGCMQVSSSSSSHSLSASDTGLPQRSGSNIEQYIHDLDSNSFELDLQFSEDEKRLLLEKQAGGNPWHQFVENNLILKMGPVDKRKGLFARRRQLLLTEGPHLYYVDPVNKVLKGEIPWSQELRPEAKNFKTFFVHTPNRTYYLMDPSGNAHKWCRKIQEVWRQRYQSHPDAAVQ

[2] = molecular target: Serine/threonine-protein kinase RAF and Dual specificity mitogen-activated protein kinase kinase 1 (Raf/MEK) (Homo sapiens, UniProt P04049+Q02750); experiment: Inhibitory activity against Raf/MEK; type: functional
[3] = molecular target: T2, Proto-oncogene tyrosine-protein kinase Src (Homo sapiens, UniProt P12931); experiment: Inhibitory activity against non-receptor tyrosine kinase Src in enzyme assay
[4] = molecular target: Cyclin-dependent kinase 4 (Homo sapiens, UniProt P11802); experiment: Inhibitory activity against CDK4; type: functional
[5] = molecular target: T2, Proto-oncogene tyrosine-protein kinase Src; experiment: Inhibitory activity against non-receptor tyrosine kinase Src in cell assay; type: functional
[6] = molecular target: Serine/threonine-protein kinase AKT (Homo sapiens, UniProt P31751+Q9Y243+P31749); experiment: Inhibitory activity against AKT; type: functional
[7] = molecular target: Inhibitor of NF-kappa-B kinase (IKK) (Homo sapiens, UniProt O14920+O15111+Q9Y6K9); experiment: Inhibitory activity against IKK; type: functional
Sequence of Inhibitor of NF-kappa-B kinase (IKK) (O14920 whole entry): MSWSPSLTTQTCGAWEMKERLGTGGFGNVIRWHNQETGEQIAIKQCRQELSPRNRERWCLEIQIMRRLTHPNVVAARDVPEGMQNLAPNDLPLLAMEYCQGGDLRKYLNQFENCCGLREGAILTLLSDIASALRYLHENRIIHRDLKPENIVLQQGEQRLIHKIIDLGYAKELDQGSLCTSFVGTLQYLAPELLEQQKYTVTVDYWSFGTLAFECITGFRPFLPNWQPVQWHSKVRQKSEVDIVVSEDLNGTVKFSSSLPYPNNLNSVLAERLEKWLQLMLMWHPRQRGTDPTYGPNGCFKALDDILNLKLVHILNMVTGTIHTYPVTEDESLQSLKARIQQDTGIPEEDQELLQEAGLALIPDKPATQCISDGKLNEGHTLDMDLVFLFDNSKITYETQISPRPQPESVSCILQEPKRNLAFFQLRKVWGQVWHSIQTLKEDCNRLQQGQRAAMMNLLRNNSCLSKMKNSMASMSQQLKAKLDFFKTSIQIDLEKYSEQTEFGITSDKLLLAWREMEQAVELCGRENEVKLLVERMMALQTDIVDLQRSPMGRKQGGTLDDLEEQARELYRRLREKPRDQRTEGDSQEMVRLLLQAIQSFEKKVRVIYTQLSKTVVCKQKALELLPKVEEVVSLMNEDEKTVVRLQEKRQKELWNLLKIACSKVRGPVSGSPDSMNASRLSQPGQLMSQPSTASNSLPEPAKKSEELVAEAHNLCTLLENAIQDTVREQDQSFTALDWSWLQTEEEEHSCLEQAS
Sequence of Inhibitor of NF-kappa-B kinase (IKK) (O15111 whole entry): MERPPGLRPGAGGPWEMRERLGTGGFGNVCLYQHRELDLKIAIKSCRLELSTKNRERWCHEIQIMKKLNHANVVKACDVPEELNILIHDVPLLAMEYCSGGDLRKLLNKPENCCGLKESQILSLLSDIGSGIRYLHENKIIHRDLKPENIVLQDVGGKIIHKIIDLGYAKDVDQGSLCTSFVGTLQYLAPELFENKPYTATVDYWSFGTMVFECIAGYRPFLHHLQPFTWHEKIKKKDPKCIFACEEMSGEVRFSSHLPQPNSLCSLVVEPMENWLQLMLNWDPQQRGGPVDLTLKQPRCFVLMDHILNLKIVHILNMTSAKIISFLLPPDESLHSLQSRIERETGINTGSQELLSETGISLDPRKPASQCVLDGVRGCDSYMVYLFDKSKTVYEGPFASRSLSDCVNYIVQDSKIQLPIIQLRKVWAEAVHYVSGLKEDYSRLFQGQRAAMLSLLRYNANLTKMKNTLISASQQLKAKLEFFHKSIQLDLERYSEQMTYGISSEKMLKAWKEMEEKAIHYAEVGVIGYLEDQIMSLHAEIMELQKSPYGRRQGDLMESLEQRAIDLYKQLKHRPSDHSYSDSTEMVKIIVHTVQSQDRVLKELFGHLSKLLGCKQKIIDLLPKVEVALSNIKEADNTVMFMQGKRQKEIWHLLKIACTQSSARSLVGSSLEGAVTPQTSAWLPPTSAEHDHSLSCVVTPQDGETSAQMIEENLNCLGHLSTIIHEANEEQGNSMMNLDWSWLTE
Sequence of Inhibitor of NF-kappa-B kinase (IKK) (Q9Y6K9 whole entry): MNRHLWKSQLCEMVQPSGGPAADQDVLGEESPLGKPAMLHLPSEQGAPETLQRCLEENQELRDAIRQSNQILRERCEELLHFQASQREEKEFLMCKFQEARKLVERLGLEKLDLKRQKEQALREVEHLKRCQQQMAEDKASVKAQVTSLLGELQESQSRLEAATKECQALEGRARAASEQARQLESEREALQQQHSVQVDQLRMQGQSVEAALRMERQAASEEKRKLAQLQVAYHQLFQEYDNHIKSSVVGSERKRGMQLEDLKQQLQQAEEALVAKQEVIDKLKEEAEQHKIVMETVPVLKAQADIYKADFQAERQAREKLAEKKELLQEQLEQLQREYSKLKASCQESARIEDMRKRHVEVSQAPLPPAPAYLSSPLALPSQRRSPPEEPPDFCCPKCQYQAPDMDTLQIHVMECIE

T2 sequence (P12931 2-536 limits assumed): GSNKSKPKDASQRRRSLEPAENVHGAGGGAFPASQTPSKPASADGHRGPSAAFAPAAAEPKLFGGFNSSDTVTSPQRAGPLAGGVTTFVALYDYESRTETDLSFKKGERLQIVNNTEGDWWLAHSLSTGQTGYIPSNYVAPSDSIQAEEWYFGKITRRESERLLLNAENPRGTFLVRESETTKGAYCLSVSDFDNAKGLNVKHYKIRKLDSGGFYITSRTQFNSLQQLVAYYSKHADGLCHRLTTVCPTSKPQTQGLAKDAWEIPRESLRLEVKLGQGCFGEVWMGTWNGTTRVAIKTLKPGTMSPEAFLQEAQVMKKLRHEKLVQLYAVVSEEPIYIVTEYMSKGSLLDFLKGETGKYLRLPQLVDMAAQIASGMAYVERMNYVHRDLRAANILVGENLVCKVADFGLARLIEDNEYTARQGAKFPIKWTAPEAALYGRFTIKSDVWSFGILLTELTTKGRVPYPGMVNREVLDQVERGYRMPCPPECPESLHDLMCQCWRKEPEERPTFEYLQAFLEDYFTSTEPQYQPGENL
Sequence of Cyclin-dependent kinase 4 (P11802 whole entry): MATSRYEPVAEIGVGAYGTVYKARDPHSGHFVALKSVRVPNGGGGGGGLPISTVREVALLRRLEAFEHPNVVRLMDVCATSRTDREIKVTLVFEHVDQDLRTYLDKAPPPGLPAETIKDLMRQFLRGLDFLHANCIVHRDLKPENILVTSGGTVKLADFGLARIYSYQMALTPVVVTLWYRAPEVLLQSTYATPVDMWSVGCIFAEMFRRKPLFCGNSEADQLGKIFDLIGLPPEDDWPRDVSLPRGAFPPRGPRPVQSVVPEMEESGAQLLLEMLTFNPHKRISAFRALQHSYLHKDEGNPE

IC50 [1]: > 10000 nM
IC50 [2]: 1600 nM
IC50 [3]: 13 nM
IC50 [4]: > 10000 nM
IC50 [5]: 420 nM
IC50 [6]: > 10000 nM
IC50 [7]: > 10000 nM
Compound: COc1cc(Nc2c(C#N)cnc3cc(-c4ccc(CN5CCN(C)CC5)cn4)sc23)c(Cl)cc1Cl
